Test results as given in patent publication US9993518B2, “Association of a tetrapeptide and a glyceryl ester for treating androgenic alopecia” (PIERRE FABRE DERMO-COSMETIQUE, priority 2014, dated 2018).

Columns and labels:
Format in all cases: cell-based
Details in all cases: human hair follicles, 6 h, Control RQ = 1, average of two donors
FZD1 gene = FZD1 gene expression in cultured human hair follicle bulbs, quantitative real-time PCR
Procedure: (§1) Hair follicle bulbs derived from plastic surgery waste (face lifts) from two donors were isolated by microdissection, cultured and treated for 6 hours with the active agents (acetyl tetrapeptide-3, glyceryl laurate, and the association thereof). RNA was extracted, assayed, reverse-transcribed and the expression of a panel of genes expressed in the pilosebaceous follicle was analyzed by quantitative real-time PCR.
(§2) The analysis of the results generated in this study led, for each condition applied and each gene of interest studied, to the calculation of a relative quantity (RQ). RQ corresponds to the expression level of a gene relative to its basal expression level (expression level obtained for the Control condition, the RQ of which is set to 1). Thus, the modulation of a gene's expression level is considered significant when: • the RQ is greater than or equal to 2: the gene is expressed two times more than in the Control condition • the RQ is less than or equal to 0.5: the gene is expressed two times less than in the Control condition.
(§3) The set of results presented below corresponds to the average results obtained for the two donors of the study.

SFRP1 gene = SFRP1 gene expression in cultured human hair follicle bulbs, quantitative real-time PCR
Procedure: as §1, §2, §3

KRT17 gene = KRT17 gene expression in cultured human hair follicle bulbs, quantitative real-time PCR
Procedure: as §1, §2, §3

KRT25 gene = KRT25 gene expression in cultured human hair follicle bulbs, quantitative real-time PCR
Procedure: as §1, §2, §3

KRT27 gene = KRT27 gene expression in cultured human hair follicle bulbs, quantitative real-time PCR
Procedure: as §1, §2, §3

KRT81 gene = KRT81 gene expression in cultured human hair follicle bulbs, quantitative real-time PCR
Procedure: as §1, §2, §3

| Compound | RQ (relative quantity), expression level of the FZD1 gene (FZD1 gene; 10 μM) | RQ (relative quantity), expression level of the SFRP1 gene (SFRP1 gene; 10 μM) | RQ (relative quantity), expression level of the KRT17 gene (KRT17 gene; 10 μM) | RQ (relative quantity), expression level of the KRT25 gene (KRT25 gene; 10 μM) | RQ (relative quantity), expression level of the KRT27 gene (KRT27 gene; 10 μM) | RQ (relative quantity), expression level of the KRT81 gene (KRT81 gene; 10 μM) | RQ (relative quantity), expression level of the FZD1 gene (FZD1 gene; 20 μM) | RQ (relative quantity), expression level of the SFRP1 gene (SFRP1 gene; 20 μM) | RQ (relative quantity), expression level of the KRT17 gene (KRT17 gene; 20 μM) | RQ (relative quantity), expression level of the KRT25 gene (KRT25 gene; 20 μM) | RQ (relative quantity), expression level of the KRT27 gene (KRT27 gene; 20 μM) | RQ (relative quantity), expression level of the KRT81 gene (KRT81 gene; 20 μM) |
| --- | --- | --- | --- | --- | --- | --- | --- | --- | --- | --- | --- | --- |
| CCCCCCCCCCCC(=O)OCC(O)CO (stereo not drawn) [GL, glyceryl laurate] | 1.3 | 0.9 | 1.1 | 1.3 | 1.3 | 1.8 |  |  |  |  |  |  |
| acetyl tetrapeptide-3 (Ac-KGHK-NH2) [ATP-3, CAS number 827306-88-7] |  |  |  |  |  |  | 1.2 | 1.3 | 0.8 | 1.7 | 1.4 | 1.5 |
